Key:
B2 bradykinin receptor = target: T1, B2 bradykinin receptor (Homo sapiens, UniProt P30411); format: cell membranes, Membrane; conditions: chem-1; also: in other assays of this panel Not Active means under 50% inhibition at 10 µM
T1 sequence (P30411 whole entry): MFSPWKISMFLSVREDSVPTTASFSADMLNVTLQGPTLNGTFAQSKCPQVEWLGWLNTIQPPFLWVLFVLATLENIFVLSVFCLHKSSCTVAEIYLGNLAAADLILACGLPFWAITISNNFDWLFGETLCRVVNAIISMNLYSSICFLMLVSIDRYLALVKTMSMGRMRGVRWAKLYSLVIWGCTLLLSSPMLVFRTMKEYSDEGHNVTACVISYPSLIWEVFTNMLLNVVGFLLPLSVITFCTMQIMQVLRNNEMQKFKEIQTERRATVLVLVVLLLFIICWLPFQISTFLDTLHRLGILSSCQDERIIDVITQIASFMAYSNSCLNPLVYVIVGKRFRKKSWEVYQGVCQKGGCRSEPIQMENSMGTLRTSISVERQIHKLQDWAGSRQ

[1] = target: Prostaglandin G/H synthase 1 (Homo sapiens, UniProt P23219); test: biochemical; format: tissue-based, Platelet; conditions: platelet;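 also: inhibition of COX-1 enzyme activity, with arachidonic acid supplied as substrate; in other assays of this panel Not Active means under 50% inhibition at 10 µM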
Prostaglandin G/H synthase 1, sequence (P23219 whole entry): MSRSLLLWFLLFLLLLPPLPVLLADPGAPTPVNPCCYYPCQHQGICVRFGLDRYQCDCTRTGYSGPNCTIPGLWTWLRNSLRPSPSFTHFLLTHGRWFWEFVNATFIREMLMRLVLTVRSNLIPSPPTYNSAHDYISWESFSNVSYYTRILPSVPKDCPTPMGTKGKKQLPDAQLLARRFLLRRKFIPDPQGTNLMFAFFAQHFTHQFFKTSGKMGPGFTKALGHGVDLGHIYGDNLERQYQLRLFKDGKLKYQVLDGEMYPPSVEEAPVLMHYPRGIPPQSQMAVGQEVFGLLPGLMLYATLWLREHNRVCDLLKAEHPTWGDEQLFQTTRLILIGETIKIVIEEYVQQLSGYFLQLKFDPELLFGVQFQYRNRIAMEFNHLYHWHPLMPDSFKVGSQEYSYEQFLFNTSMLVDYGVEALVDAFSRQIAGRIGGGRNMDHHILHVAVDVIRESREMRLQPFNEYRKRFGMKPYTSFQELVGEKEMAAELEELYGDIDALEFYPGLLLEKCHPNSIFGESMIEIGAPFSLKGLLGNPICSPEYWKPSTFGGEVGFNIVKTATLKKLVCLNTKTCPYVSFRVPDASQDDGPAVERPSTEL

[2] = target: Protein phosphatase 3 catalytic subunit alpha (Homo sapiens, UniProt Q08209); set-up: species or system Escherichia coli;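 also: inhibition of calcineurin (PP2B) enzyme activity, measured with DiFMUP as the substrate; in other assays of this panel Not Active means under 50% inhibition at 10 µM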
[3] = target: Matrix metalloproteinase-9 (Homo sapiens, UniProt P14780); format: cell-based;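 also: inhibition of isolated MMP-9 enzyme activity toward a synthetic peptide substrate, from the DrugMatrix protease screening panel; in other assays of this panel Not Active means under 50% inhibition at 10 µM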
Matrix metalloproteinase-9, sequence (P14780 whole entry): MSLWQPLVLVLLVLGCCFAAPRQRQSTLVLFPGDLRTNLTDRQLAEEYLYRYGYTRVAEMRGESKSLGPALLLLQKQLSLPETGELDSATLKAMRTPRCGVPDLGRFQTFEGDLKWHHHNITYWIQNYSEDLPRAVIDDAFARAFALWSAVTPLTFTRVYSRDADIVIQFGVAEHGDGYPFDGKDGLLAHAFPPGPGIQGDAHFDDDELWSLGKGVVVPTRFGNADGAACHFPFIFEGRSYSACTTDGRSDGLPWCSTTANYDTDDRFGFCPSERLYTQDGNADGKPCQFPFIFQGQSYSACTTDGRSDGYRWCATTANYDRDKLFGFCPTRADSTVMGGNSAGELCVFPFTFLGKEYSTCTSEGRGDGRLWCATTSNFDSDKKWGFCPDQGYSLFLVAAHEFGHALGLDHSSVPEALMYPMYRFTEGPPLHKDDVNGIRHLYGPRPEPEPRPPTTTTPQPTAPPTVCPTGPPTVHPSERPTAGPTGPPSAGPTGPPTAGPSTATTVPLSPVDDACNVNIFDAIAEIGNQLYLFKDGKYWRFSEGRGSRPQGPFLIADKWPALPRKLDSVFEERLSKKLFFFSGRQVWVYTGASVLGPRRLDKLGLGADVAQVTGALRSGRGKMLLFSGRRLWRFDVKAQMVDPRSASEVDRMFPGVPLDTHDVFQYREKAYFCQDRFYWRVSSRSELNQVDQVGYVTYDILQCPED

[4] = DRUGMATRIX: Tumor Necrosis Factor (TNF), Non-Selective radioligand binding (ligand: [125I] TNF-alpha); format: cell membranes, Membrane; conditions: u-937; Not Active = under 50% inhibition at 10 µM
Neutrophil elastase = target: T2, Neutrophil elastase (Homo sapiens, UniProt P08246); format: tissue-based
T2 sequence (P08246 whole entry): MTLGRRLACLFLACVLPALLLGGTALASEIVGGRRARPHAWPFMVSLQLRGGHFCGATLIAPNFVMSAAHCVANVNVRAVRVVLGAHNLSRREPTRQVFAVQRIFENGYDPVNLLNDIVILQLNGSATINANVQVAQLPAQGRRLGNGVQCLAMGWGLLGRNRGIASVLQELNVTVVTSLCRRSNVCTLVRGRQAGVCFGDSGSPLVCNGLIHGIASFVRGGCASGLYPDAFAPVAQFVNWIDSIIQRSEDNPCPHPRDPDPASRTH

[5] = DRUGMATRIX: Imidazoline I2, Central radioligand binding (ligand: [3H] Idazoxan); format: cell membranes, Rattus norvegicus, Wistar, Cerebral cortex, Membrane; conditions: Not Active = under 50% inhibition at 10 µM
Nitric oxide synthase 1 = Nitric oxide synthase 1 (Rattus norvegicus, UniProt P29476); format: tissue-based, Cerebellum; also: in other assays of this panel Not Active means under 50% inhibition at 10 µM
Nitric oxide synthase 1, sequence (P29476 whole entry): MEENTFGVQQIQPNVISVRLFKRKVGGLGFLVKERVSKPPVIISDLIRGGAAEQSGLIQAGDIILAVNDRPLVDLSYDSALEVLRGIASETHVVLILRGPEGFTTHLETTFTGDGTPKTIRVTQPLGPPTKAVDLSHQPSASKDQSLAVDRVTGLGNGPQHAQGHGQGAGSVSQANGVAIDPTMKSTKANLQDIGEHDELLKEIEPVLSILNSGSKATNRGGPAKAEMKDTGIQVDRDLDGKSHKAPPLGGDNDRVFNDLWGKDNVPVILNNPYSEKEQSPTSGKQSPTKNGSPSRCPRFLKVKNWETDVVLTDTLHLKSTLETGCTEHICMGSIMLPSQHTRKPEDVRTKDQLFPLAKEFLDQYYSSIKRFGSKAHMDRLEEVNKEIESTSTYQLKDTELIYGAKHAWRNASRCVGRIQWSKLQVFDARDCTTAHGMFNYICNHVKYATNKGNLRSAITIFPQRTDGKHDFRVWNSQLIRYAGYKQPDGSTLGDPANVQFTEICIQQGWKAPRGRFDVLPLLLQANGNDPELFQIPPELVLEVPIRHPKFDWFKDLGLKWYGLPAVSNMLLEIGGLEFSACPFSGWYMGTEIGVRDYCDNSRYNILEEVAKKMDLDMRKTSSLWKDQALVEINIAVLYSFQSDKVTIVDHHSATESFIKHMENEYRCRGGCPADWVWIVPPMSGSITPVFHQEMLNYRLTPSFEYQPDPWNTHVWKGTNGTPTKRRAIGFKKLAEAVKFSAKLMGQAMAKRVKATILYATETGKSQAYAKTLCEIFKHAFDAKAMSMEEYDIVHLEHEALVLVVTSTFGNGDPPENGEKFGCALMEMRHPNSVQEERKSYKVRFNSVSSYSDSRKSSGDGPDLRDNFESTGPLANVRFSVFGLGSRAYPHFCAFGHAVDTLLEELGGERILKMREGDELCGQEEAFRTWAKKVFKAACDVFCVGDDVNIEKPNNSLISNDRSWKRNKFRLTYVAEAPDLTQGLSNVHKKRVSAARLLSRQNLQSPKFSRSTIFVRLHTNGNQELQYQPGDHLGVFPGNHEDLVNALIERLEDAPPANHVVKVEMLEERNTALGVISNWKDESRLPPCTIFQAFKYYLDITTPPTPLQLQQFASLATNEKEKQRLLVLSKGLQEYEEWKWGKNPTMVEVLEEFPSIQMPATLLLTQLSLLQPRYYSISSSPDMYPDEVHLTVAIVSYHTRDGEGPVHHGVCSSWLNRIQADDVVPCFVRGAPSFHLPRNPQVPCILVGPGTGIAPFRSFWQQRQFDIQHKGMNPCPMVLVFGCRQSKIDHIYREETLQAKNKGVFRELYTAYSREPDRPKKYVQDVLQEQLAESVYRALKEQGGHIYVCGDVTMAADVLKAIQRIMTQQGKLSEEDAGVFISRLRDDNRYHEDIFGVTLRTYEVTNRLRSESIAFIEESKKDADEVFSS

[6] = DRUGMATRIX: Leukotriene, BLT (LTB4) radioligand binding (ligand: [3H]LTB4); format: cell membranes, Membrane; conditions: u-937; Not Active = under 50% inhibition at 10 µM
[7] = target: T3, Nitric oxide synthase, inducible (Mus musculus, UniProt P29477); set-up: species or system Escherichia coli
T3 sequence (P29477 whole entry): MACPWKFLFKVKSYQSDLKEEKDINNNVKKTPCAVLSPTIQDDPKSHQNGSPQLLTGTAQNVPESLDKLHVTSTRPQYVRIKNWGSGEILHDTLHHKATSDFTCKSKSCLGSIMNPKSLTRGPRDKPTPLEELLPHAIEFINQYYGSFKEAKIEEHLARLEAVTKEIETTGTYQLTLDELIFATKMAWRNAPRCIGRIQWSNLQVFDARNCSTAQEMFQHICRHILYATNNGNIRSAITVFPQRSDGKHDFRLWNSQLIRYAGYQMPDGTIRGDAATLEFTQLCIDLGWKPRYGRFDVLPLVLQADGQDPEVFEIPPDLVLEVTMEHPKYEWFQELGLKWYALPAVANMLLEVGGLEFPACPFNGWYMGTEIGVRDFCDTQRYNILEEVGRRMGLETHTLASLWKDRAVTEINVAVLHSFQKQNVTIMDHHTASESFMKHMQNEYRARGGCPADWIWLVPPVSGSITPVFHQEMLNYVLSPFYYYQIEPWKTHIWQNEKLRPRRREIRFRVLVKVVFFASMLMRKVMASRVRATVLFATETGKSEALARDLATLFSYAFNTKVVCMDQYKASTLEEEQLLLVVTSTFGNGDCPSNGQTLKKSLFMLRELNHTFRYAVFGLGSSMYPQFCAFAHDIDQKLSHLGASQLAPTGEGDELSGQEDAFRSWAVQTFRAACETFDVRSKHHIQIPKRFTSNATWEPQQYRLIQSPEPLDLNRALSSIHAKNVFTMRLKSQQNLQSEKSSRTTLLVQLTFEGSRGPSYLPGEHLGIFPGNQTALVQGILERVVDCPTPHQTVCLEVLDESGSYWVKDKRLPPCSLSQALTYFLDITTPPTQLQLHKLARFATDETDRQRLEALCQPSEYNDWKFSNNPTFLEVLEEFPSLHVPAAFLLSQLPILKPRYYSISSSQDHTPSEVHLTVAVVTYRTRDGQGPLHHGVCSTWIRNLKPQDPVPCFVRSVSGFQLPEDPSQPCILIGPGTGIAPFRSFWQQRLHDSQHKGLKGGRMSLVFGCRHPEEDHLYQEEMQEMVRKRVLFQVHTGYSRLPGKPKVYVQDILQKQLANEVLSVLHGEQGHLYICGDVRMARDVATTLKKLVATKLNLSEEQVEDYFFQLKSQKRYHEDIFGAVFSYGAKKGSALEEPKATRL

Insulin receptor = Insulin receptor (Rattus norvegicus, UniProt P15127); format: cell membranes, Wistar, Liver, Membrane; also: in other assays of this panel Not Active means under 50% inhibition at 10 µM
Insulin receptor, sequence (P15127 27-759 limits assumed): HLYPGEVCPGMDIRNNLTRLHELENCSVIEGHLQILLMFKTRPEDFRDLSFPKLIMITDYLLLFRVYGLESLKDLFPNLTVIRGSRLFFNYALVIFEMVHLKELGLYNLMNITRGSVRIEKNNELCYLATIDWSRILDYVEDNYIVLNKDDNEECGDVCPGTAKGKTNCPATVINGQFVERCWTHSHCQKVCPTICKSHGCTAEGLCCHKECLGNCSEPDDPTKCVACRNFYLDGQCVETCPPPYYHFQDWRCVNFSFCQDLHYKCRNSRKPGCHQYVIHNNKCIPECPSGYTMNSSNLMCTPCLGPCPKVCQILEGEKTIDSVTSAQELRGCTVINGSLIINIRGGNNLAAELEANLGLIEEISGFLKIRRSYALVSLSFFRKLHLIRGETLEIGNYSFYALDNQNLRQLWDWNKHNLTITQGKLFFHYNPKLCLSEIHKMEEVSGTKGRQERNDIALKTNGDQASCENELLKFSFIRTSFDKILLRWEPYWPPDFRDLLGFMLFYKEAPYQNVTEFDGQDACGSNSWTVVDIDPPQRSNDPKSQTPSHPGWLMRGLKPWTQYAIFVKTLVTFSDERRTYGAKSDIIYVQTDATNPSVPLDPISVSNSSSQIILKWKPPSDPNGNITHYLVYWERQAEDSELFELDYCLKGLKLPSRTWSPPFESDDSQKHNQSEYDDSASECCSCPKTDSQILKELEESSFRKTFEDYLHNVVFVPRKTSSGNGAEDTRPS
Insulin receptor, sequence (P15127 764-1383 limits assumed): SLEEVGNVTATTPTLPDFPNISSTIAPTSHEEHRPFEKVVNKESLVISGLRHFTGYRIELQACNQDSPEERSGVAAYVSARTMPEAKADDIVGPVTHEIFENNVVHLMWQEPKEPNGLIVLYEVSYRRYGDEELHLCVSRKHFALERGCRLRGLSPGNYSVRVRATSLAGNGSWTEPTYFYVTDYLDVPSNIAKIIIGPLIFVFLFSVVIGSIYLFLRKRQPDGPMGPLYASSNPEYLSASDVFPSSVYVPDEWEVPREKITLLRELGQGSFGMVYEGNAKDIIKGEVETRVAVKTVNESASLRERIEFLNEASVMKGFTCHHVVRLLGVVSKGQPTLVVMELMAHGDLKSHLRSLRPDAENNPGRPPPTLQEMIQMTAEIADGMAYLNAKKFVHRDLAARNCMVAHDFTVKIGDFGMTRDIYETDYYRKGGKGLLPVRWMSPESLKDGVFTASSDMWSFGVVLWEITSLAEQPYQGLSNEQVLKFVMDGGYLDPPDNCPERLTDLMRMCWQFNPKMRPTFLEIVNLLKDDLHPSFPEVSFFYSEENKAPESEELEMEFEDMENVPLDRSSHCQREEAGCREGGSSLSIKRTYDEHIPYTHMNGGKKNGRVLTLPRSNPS

Vasopressin V1a receptor = Vasopressin V1a receptor (Homo sapiens, UniProt P37288); format: cell membranes, Membrane; conditions: hek293; also: in other assays of this panel Not Active means under 50% inhibition at 10 µM
Vasopressin V1a receptor, sequence (P37288 whole entry): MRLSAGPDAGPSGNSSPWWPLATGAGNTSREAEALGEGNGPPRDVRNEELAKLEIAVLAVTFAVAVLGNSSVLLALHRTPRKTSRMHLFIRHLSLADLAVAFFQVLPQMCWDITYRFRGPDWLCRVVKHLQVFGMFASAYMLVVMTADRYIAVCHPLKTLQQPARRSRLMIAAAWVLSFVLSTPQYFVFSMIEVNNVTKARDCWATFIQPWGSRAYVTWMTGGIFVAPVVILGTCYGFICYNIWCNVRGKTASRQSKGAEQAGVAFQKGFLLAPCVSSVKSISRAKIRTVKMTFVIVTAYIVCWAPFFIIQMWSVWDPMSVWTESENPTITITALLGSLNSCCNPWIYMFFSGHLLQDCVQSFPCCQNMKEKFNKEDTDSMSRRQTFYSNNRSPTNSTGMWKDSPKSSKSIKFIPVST

[8] = target: T4, Muscarinic acetylcholine receptor M2 (Homo sapiens, UniProt P08172); format: cell membranes, CHO-K1, Membrane; conditions: cho-k1; also: in other assays of this panel Not Active means under 50% inhibition at 10 µM
T4 sequence (P08172 whole entry): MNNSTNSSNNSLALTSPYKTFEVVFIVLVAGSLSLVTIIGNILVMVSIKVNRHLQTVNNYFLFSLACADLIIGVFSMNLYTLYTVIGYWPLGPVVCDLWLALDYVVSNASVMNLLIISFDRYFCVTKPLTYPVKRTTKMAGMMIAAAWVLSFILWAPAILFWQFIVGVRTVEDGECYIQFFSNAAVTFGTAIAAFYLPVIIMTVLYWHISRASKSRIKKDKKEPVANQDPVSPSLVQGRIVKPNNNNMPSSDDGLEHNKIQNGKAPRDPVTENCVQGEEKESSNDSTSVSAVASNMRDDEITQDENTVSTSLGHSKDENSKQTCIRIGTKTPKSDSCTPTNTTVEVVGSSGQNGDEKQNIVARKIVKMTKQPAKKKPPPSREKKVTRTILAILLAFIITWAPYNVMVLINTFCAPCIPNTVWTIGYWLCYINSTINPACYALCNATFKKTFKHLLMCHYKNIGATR

Oc1c(I)cc(I)c2cccnc12 [IODOQUINOL]
Not Active: IC50 (B2 bradykinin receptor) | IC50 [1] | IC50 [2] | IC50 [3] | IC50 [4] | Ki [4] | IC50 (Neutrophil elastase) | IC50 [5] | Ki [5] | IC50 (Nitric oxide synthase 1) | IC50 [6] | Ki [6] | IC50 [7] | IC50 (Insulin receptor) | IC50 (Vasopressin V1a receptor) | IC50 [8]

CN1[C@@H]2CC[C@H]1C[C@@H](OC(=O)c1c[nH]c3ccccc13)C2 [TROPISETRON]
Not Active: IC50 (B2 bradykinin receptor) | IC50 [1] | IC50 [2] | IC50 [3] | IC50 [4] | Ki [4] | IC50 (Neutrophil elastase) | IC50 [5] | Ki [5] | IC50 (Nitric oxide synthase 1) | IC50 [6] | Ki [6] | IC50 [7] | IC50 (Insulin receptor) | IC50 (Vasopressin V1a receptor) | IC50 [8]

NC(=O)c1ccccc1O [SALICYLAMIDE]
Not Active: IC50 (B2 bradykinin receptor) | IC50 [1] | IC50 [2] | IC50 [3] | IC50 [4] | Ki [4] | IC50 (Neutrophil elastase) | IC50 [5] | Ki [5] | IC50 (Nitric oxide synthase 1) | IC50 [6] | Ki [6] | IC50 [7] | IC50 (Insulin receptor) | IC50 (Vasopressin V1a receptor) | IC50 [8]

COC(=O)C1=C(C)NC(C)=C(C(=O)OC)C1c1ccccc1[N+](=O)[O-] [NIFEDIPINE]
Not Active: IC50 (B2 bradykinin receptor) | IC50 [1] | IC50 [2] | IC50 [3] | IC50 [4] | Ki [4] | IC50 (Neutrophil elastase) | IC50 [5] | Ki [5] | IC50 (Nitric oxide synthase 1) | IC50 [6] | Ki [6] | IC50 [7] | IC50 (Insulin receptor) | IC50 (Vasopressin V1a receptor) | IC50 [8]

O=[N+]([O-])c1cc([As](=O)(O)O)ccc1O [ROXARSONE]
Not Active: IC50 (B2 bradykinin receptor) | Ki (B2 bradykinin receptor) | IC50 [1] | Ki [1] | IC50 [2] | Ki [2] | IC50 [3] | Ki [3] | IC50 [4] | Ki [4] | IC50 (Neutrophil elastase) | Ki (Neutrophil elastase) | IC50 [5] | Ki [5] | IC50 (Nitric oxide synthase 1) | Ki (Nitric oxide synthase 1) | IC50 [6] | Ki [6] | IC50 [7] | Ki [7] | IC50 (Insulin receptor) | Ki (Insulin receptor) | IC50 (Vasopressin V1a receptor) | Ki (Vasopressin V1a receptor) | IC50 [8] | Ki [8]

NCCCC[C@H](N[C@@H](CCc1ccccc1)C(=O)O)C(=O)N1CCC[C@H]1C(=O)O [LISINOPRIL ANHYDROUS]
Not Active: IC50 (B2 bradykinin receptor) | IC50 [1] | IC50 [2] | IC50 [3] | IC50 [4] | Ki [4] | IC50 (Neutrophil elastase) | IC50 [5] | Ki [5] | IC50 (Nitric oxide synthase 1) | IC50 [6] | Ki [6] | IC50 [7] | IC50 (Insulin receptor) | IC50 (Vasopressin V1a receptor) | IC50 [8]

CC(=O)S[C@@H]1CC2=CC(=O)CC[C@]2(C)[C@H]2CC[C@@]3(C)[C@@H](CC[C@@]34CCC(=O)O4)[C@H]12 [SPIRONOLACTONE]
Not Active: IC50 (B2 bradykinin receptor) | IC50 [1] | IC50 [2] | IC50 [3] | IC50 [4] | Ki [4] | IC50 (Neutrophil elastase) | IC50 [5] | Ki [5] | IC50 (Nitric oxide synthase 1) | IC50 [6] | Ki [6] | IC50 [7] | IC50 (Insulin receptor) | IC50 (Vasopressin V1a receptor) | IC50 [8]

CC(C)(C)NCC(O)c1ccc(O)c(CO)c1 (stereo not drawn) [ALBUTEROL]
Not Active: IC50 (B2 bradykinin receptor) | IC50 [1] | IC50 [2] | IC50 [3] | IC50 [4] | Ki [4] | IC50 (Neutrophil elastase) | IC50 [5] | Ki [5] | IC50 (Nitric oxide synthase 1) | IC50 [6] | Ki [6] | IC50 [7] | IC50 (Insulin receptor) | IC50 (Vasopressin V1a receptor) | IC50 [8]

— ChEMBL document CHEMBL1909046, “DrugMatrix in vitro pharmacology data”
